Publication PMC11857211, “Bioprospecting Bioactive Peptides in Halobatrachus didactylus Body Mucus: From In Silico Insights to Essential In Vitro Validation” (Marine Drugs, 2025)
Entries after “also recorded” stand apart in the source; their conditions may differ. Marks after values point to notes of the source that are not given here.

What was measured:
E. coli biofilm = assay: Antibiofilm activity (crystal violet); type: cell-based, Escherichia coli; conditions: 24 h incubation, HdKTLR 262, HdKNL 262, HdPPP 130, HdVLPN 204, HdLPN 227 µg/mL, OD 595 nm
Description: (§1) The antibiofilm activity was determined according to the following method, with some modifications. Taking the microplate from 24 h inhibition growth curves, the contents of the plate were discarded, and each well was carefully washed three times with distilled water to remove non-adherent cells. The adhered cells were fixed with 150 µL of methanol for 10 min. Then, the methanol was discarded, the plates were left to dry, and then, the fixed biofilm was stained with […] of crystal violet (CV) for 10 min. Excess stain was rinsed out by placing the plate under slow-running tap water. Once the plates were air-dried, the dye attached to the adherent cells was resolubilized by adding 150 µL of 33% (v/v) glacial acetic acid and agitated for 15 min. The optical density of the solution obtained was measured at 595 nm using a multidetection plate reader (Synergy H1, Winooski, VT, USA). All tests were carried out in duplicate, with a positive control using an inoculated culture in MH broth and a negative control using MH broth only. The results are presented as the percentage of biofilm formation, calculated according to the following formula, where the OD of the sample is the measured OD of the inoculated medium mixed with the peptides, and the OD of the positive control is the OD measured for the positive control.% Biofilm formation = (ODsample/ODpositive control) × 100(1)

[1] = cited from earlier work
Description: Table 4 Summary of peptide solubility and concentration values. | column: Solubility || A high-performance size exclusion chromatography (HPSEC) analysis was employed to validate the molecular weight of the selected peptides, HdKTLR, HdKNL, HdVLPN, and HdLPN, synthesized by GenScript Biotech (Rijswijk, The Netherlands), following the preparation instructions provided in the technical datasheet. […] At higher concentrations, viscosity may increase due to molecular interactions between DMSO, buffer ions, and water. In iso ...

[2] = High-performance size exclusion chromatography (HPSEC): molecular size and aggregation; type: physicochemical; conditions: for Aggregation behaviour in HPSEC: Agilent AdvanceBio SEC 130 Å, isocratic, buffers 344 mM or 700 mM at pH 3.0, 5.0, 7.0, PDA detection
Description: The HPSEC column was eluted with 344 mM of a phosphate buffer at pH 7.0, replicating the conditions used to analyze the mucus peptide fraction in our previous article. During the analysis, we observed the formation of peptide aggregates, specifically oligomers, including dimers, trimers, and tetramers. Various buffer conditions were tested to determine if a particular pH and ionic strength would enable the peptides to expose their theoretical molecular weights, as specified in the GenScript technical datasheet. Since seawater typically has an ionic strength of approximately 700 mM [10], buffers with this ionic strength were tested at pH 3.0, 5.0, and 7.0, as well as at 344 mM of ionic strength.
The peptides’ molecular size validation was determined using high-performance size exclusion chromatography (HPSEC). An Agilent AdvanceBio SEC column (Agilent Technologies, London, UK), 2.7 µm in particle size, 130 Å in pore size, and 7.8 in inner diameter × 300 mm in length, was used. The column was eluted isocratically using various buffers with different pH and ionic strengths, namely, 344 mM at pH 7 (0.15 M of a phosphate buffer with NaH2PO4), 700 mM at pH 7 (0.15 M of a phosphate buffer with NaH2PO4 and NaCl), 344 mM at pH 5 (0. 15 M of an acetate buffer with acetic acid and NaCl), 700 mM at pH 5 (0.15 M of an acetate buffer with acetic acid and NaCl), 344 mM at pH 3 (0.05 M of a formate buffer with fomic acid and NaCl), and 700 mM at pH 3 (0.05 M of a formate buffer with formic acid and NaCl) at a flow rate of 1 mL/min. The sample injection volume was 10 µL. The instrument used was Waters 2690 with a photodiode array detector (PDA 190–600 nm). The software Empower 3 was used for data collection. To determine the molecular weights of the resulting chromatogram peaks, a calibration curve was made with the following protein standards: Ovalbumin (44,300 Da), Myoglobin (17,600 Da), Cytochrome C (12,327 Da), Aprotinin (6511 Da), Neurotensin (1672 Da), Angiotensin-II (1040 Da), Tyr-Phe dipeptide (328.4 Da), and L-tryptophan (204 Da).

S. enterica biofilm = assay: Antibiofilm activity (crystal violet); type: cell-based, Salmonella enterica; conditions: 24 h incubation, HdKTLR 262, HdKNL 262, HdPPP 130, HdVLPN 204, HdLPN 227 µg/mL, OD 595 nm
Description: as §1

S. aureus biofilm = assay: Antibiofilm activity (crystal violet); type: cell-based, Staphylococcus aureus; conditions: 24 h incubation, HdKTLR 262, HdKNL 262, HdPPP 130, HdVLPN 204, HdLPN 227 µg/mL, OD 595 nm
Description: as §1

[3] = ORAC assay of peptide mixed with mucus (synergy); parameters: Increase in ORAC antioxidant activity of peptide combined with mucus versus sum of the individual systems: concentration or dose not given beside the values; conditions: for Increase in ORAC antioxidant activity of peptide combined with mucus versus sum of the individual systems: one part peptide to four parts mucus; for ORAC of the peptide alone in the synergy experiment: one part peptide to four parts phosphate buffer, Figure 3 captive, Figure 4 wild series
Description: The ORAC assay followed the protocol outlined by Coscueta et al.. […] Fluorescence was monitored for 80 min at 1 min intervals. Each sample, standard, blank, or control, analysis was duplicated. The final ORAC values were expressed as µmol TE/µmol of peptide for the peptides and µmol TE /mg of protein for the digestion retentate and permeate contents. The synergistic interaction between the mucus and peptides was performed by mixing the peptides with mucus at a ratio of one part peptide to four parts mucus. In addition, control analyses were performed by mixing one part of the phosphate buffer with four parts of the mucus and another with one part of the peptide to four parts of the phosphate buffer. The mixtures were then tested in the ORAC assay. The final ORAC values were expressed as µM TE.

ORAC assay = conditions: fluorescence monitored 80 min, means (n ≥ 3) ± SD, nd: not detected
Description: The ORAC assay followed the protocol outlined by Coscueta et al.. […] Fluorescence was monitored for 80 min at 1 min intervals. Each sample, standard, blank, or control, analysis was duplicated. The final ORAC values were expressed as µmol TE/µmol of peptide for the peptides and µmol TE /mg of protein for the digestion retentate and permeate contents.

| Sequence | Biofilm formation versus control (E. coli biofilm) | Solubility (solvent) [1] | Aggregation behaviour in HPSEC [2] | Biofilm formation versus control (S. enterica biofilm) | Biofilm formation versus control (S. aureus biofilm) | Increase in ORAC antioxidant activity of peptide combined with mucus versus sum of the individual systems ([3]; captive mucus sample) | Increase in ORAC antioxidant activity of peptide combined with mucus versus sum of the individual systems ([3]; wild mucus sample) | ORAC (ORAC assay) | ORAC (ORAC assay; SD) | Molecular weight observed by HPSEC (aggregate) ([2]; buffers with ionic strengths of 344 mM and 700 mM at pH 7.0 and pH 5.0, theoretical molecular weight 1588.4 Da) | ORAC of the peptide alone in the synergy experiment [3] |
| --- | --- | --- | --- | --- | --- | --- | --- | --- | --- | --- | --- |
| PFPGPLPN [HdLPN] | no significant differences | H2O | forming only dimers; also recorded: aggregation was still observed | no significant differences | no significant differences | 51% | 54% | 0.195 µmol TE/µmol Peptide | 0.195 ± 0.030 ^b,c µmol TE/µmol Peptide |  |  |
| EDNSELGQETPTLR [HdKTLR] | no significant differences | H2O | formation of aggregates into oligomers; also recorded: pronounced aggregation | no significant differences | no significant differences |  |  |  |  | approximately 7836 Da | no antioxidant activity was detected |
| VYPFPGPLPN [HdVLPN] | no significant differences | H2O | degree of polymerization was less prominent than in the other peptides; also recorded: aggregation was still observed | no significant differences | no significant differences | 31% | 44% | 1.560 µmol TE/µmol Peptide | 1.560 ± 0.110 ^c µmol TE/µmol Peptide |  |  |
| DPPNPKNL [HdKNL] | no significant differences | H2O | aggregate formation increased at higher pH conditions; also recorded: aggregation was still observed | no significant differences | no significant differences | 126% |  |  | 0.048 ± 0.002 ^a µmol TE/µmol Peptide |  | no antioxidant activity was detected |
